The text below walks through data of patent publication US11331368B2, “Angiotensin receptor agonists and uses thereof” (Monash University, priority 2017, dated 2022).

Experiment [1] has as its target T1, human AT1R (Homo sapiens, UniProt P30556).
T1 construct: expressed in transfected cells
T1 sequence (P30556 1-359): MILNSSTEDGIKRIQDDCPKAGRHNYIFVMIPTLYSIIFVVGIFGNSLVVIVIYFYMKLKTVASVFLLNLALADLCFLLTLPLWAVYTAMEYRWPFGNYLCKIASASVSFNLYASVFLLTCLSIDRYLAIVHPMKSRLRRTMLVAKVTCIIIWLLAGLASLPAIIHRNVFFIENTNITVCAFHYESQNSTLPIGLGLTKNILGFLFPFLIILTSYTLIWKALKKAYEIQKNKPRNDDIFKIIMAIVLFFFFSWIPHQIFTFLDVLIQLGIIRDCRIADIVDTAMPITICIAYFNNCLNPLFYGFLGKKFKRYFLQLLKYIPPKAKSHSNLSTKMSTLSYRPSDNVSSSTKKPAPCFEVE
Put plainly: Competition radioligand binding (125I-Sar1-Ile8-AngII) in AT1R-transfected HEK-293 cells.
Method: This will lead to the generation of IC50 values that determine the relative ability of test compounds to interact with both Angiotensin receptors.
Cells were grown to approximately 80% confluence before being re-plated into 48 well plates at 1×10^5 cells/well and grown for 48 hours at 37° C. for a whole cell competition binding assay. [125I]-Sar1Ile8Ang II at 50,000 cpm, incubated for 45 minutes at 37° C., in the absence or presence of unlabeled ligands, prepared in binding buffer (DMEM, 0.1% BSA), were used in the competition assays at concentrations ranging from 1 μM to 10 μM. For each experiment, each ligand concentration was tested in duplicate or triplicate, and each experiment was repeated at least 3 separate times. […] The ability of each ligand to inhibit specific binding of [125I]-Sar1Ile8Ang II was measured on a gamma counter with all counts corrected for NSB.

Experiment [2] addresses T2, human AT2R (Homo sapiens, UniProt P50052).
T2 construct: expressed in transfected cells
T2 sequence (P50052 1-363): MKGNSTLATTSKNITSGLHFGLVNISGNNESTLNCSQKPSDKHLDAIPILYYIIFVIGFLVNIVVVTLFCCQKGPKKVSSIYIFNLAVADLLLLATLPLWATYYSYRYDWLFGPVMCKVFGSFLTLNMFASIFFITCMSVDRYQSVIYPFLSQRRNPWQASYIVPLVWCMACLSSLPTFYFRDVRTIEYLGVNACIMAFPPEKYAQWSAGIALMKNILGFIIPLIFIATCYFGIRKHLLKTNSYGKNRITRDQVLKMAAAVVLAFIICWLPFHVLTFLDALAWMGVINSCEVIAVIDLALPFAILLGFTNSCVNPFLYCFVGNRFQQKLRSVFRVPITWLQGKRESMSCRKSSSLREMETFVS
Put plainly: Competition radioligand binding (125I-Sar1-Ile8-AngII) in AT2R-transfected HEK-293 cells. The settings on record: for Fold AT2R selectivity: AT2R over AT1R, Table 3; for binding at AT2R (displacement of 125I-Sar1-Ile8-AngII), in words: transfected HEK-293 cells. (In a radioligand displacement assay an active substance lowers the binding of a labelled ligand.)

Experiment [3] has as its system male FVB/N mice on high salt diet, heart. Put plainly: High salt (5%) diet intervention model, heart. In kind it is in vivo, mouse. To be noted: for cardiac fibrosis by hydroxyproline analysis (LV collagen content) / cardiac oxidative stress (DHE staining) / myofibroblast differentiation in heart (α-SMA): 75 pmol/kg/min s.c.; for cardiac fibrosis by hydroxyproline analysis (LV collagen content) / cardiac oxidative stress (DHE staining) / myofibroblast differentiation in heart (α-SMA) / expression of P-IκBα (marker for NFκB activation) in heart: weeks 5-8; for expression of P-IκBα (marker for NFκB activation) in heart: peptides 75 pmol/kg/min s.c., captopril 3 mg/kg/day; for expression of P-IκBα (marker for NFκB activation) in heart / cardiac fibrosis (picrosirius red): Cand 2 mg/kg/day; for cardiac fibrosis (picrosirius red): weeks 5-8 of high salt diet, peptides 75 pmol/kg/min s.c. mini-pump, captopril 3 mg/kg/day in drinking water. As for the experimental part: (§1) C) In the intervention (or reversal) model, male FVB/N mice were treated with selective AT2Rs agonists after the establishment of cardiovascular disease using a high salt diet, in order to reverse cardiovascular pathologies. In some experiments, the ACE inhibitor captopril (dose) or the ARB candesartan cilexetil (dose) were given for 4 weeks in drinking water. Organs examined included heart, kidney and liver and these were compared to either untreated mice or high salt-fed mice that were treated with saline.
A high-salt diet (5% salt) model is a clinically relevant and disease-reversal model which can replicate the high salt intake by humans which is currently a growing problem in the developed countries. High salt intake induces changes in the cardiovascular system and induces remodelling and fibrosis in the heart, kidney and liver.
(§2) Mice were placed on either a normal rodent diet (0.35% NaCl) which acted as control or a high salt diet (5% sodium in food chow) for 8 weeks. After 4 weeks, mice were also treated subcutaneously (via osmotic mini-pump) with either saline or an AT2R agonist (75 pmol/kg/min subcutaneously) for 4 weeks. Mice continued to be fed a high salt diet whilst receiving these treatments.
All mice which underwent surgery were anaesthetized with Isoflurane (Isorrane) (5% induction and 2.5% maintenance) and an incision made in the midscapular region through which osmotic minipumps (Alzet model 2004, Alza Corp) were inserted for subcutaneous drug administration. The incision area was sutured with 6/0 DY silk (Dynek Pty Ltd) and antibiotic powder applied (Cicatrin, Pfizer) followed by intramuscular injection of the analgesic Cartrophen (0.1 ml of a 1.5 mg/ml stock solution; Biopharm Australia). Systolic blood pressure (SBP) was measured using non-invasive tail-cuff plethysmography apparatus (MC4000 Blood Pressure Analysis System, Hatteras Instrument Inc) before drug treatment (week 0), and then fortnightly. At the end of the 8 week treatment period mice were weighed before being killed by overdose of isoflurane inhalation and cervical dislocation.
(§3) To measure collagen deposition, frozen sections of heart, kidney or aorta (all 5 μm thickness) were air dried for 10 minutes and were brought through 3 times xylene (2 minutes each), and 3 times absolute alcohol washes before being rinsed in tap H2O for 30 seconds. Staining with an optimal concentration of picrosirius red (in this instance 0.05% picrosirius red diluted in saturated picric acid) was performed and left for an hour. Sections were then rinsed in water and differentiated in 0.01M HCl for 2 minutes, followed by dehydration via 3 times absolute alcohol washes. Then, slides were brought through 3 times xylene washes before being cover slipped according to standard histological techniques using DPX as the mounting medium. Images were taken under ×20 magnification, using bright field (Olympus, BX51) and circularized polarized light microscopy (DM IRB, Leica) while percentage of positive interstitial collagen staining per total field of view was quantified using ImageJ 1.46 software (Java, NIH), and averaged out from a total of eight views as the final percentage collagen content in a particular animal.
Immunostaining was performed on 5 μm thick transverse frozen heart sections. These sections were air dried and fixed in ice-cold acetone for approximately 15 minutes before washing with 0.01M PBS buffer (3×10 minutes). Sections were then incubated with 10% goat serum in 0.01M PBS for 30 minutes to reduce non-specific binding. If the primary antibody is raised in goat, this pre-blocked medium is substituted with 5% BSA in PBS and Triton-X. Next, blocking buffers were removed and the primary antibody to respective markers were applied overnight at room temperature based on the following dilution and origin of the antibodies: α-SMA (1:500, Abcam), Vimentin (1:500, Santa Cruz), P-IκBα (1:200, Cell Signalling), F4/80 macrophage (1:100, Serotec). […]

Experiment [4] has as its system male FVB/N mice on high salt diet, kidney. Put plainly: High salt (5%) diet intervention model, kidney. Format: in vivo, mouse. The settings on record: 75 pmol/kg/min s.c., weeks 5-8. As for the experimental part: as §1, §2, §3
Kidney sections used either picrosirius red staining as described above or using Mason's Trichrome staining as described below.
Formalin fixed, paraffin embedded kidneys were sectioned at thickness of 4 μm and were stained with Masson's trichrome according to standard procedures for analysis of kidney fibrosis. […] Sections were re-fixed in Bouin's solution for 1 hour at 56° C. to improve staining quality then rinsed in running tap water for 5-10 minutes to remove yellow colour. Following this, sections were stained in Weigert's iron hematoxylin working solution for 10 minutes. Rinsed in running warm tap water for 10 minutes. Washed in distilled water. Stained in Biebrich scarlet-acid fuchsin solution for 10-15 minutes. Washed in distilled water. Differentiated in phosphomolybdic-phosphotungstic acid solution for 10-15 minutes or until collagen was no longer red. Sections were transferred directly (without rinse) to aniline blue solution and stained for 5-10 minutes. Rinsed briefly in distilled water and differentiated in 1% acetic acid solution for 2-5 minutes. Washed in distilled water. […] Mounted with DPX mounting medium.
Quantification of kidney fibrosis was performed using images captured with the Aperio scanner (Monash Histology Platform, Monash University), with ×5 magnification. Each kidney section had 5 different fields of view photographed at this magnification. Percentage of tubulointerstitial collagen was analysed and quantified using ImageJ 1.48 software (Java, NIH), and the percentage from 5 random fields of view were averaged for final percentage of collagen for that particular animal. All analysis of collagen expression was conducted in a blinded fashion.

Experiment [5] has the same test system. Put plainly: High salt (5%) diet intervention model, kidney. Format: in vivo, mouse. The settings on record: 75 pmol/kg/min s.c., weeks 5-8. The source holds these as a separate data set.

On to “Arg-Val-Tyr-Ile-His-β-Pro-Trp [βPro-Trβ-8-Ang III]”, for which the “binding at AT1R (displacement of 125I-Sar1-Ile8-AngII), in words” value in experiment [1] is listed as “bind poorly”. In experiment [2], the “Fold AT2R selectivity” value is given as >400,000 fold and the “binding at AT2R (displacement of 125I-Sar1-Ile8-AngII), in words” value is on record as “high affinity”. For the same substance, the AT2R/AT1R selectivity ratio in experiment [2] (approximate or conservatively estimated, listed as β-Pro^7-Trp^8-Ang III) was > 400,000 fold. In experiment [3], the “cardiac fibrosis by hydroxyproline analysis (LV collagen content)” value is given as “reversed the pro-fibrotic effects of high salt in the heart”, the “cardiac oxidative stress (DHE staining)” value is reported as “reversed the oxidative stress effects of high salt in the heart”, the “myofibroblast differentiation in heart (α-SMA)” value is given as “reversed myofibroblast differentiation” and the “expression of P-IκBα (marker for NFκB activation) in heart” value is given as “reversed”. For the same substance, the “cardiac fibrosis (picrosirius red)” value in experiment [3] was “reversed cardiac fibrosis”. Moreover, in experiment [4], the “kidney glomerular fibrosis (picrosirius red)” value is on record as “reversed the glomerular fibrosis caused by high salt in the kidney” and the “kidney tubulointerstitial fibrosis (picrosirius red)” value is “reversed the tubulointerstitial fibrosis caused by high salt in the kidney”. In addition, in experiment [5], the “macrophage infiltration in kidney (F4/80)” value was “reversed high salt-induced macrophage infiltration in the kidney”, the “renal fibrosis by hydroxyproline analysis” value is “reversed the pro-fibrotic effects of high salt in the kidney” and the “renal inflammation (phospho-IκBα expression)” value is given as “reversed high salt-induced renal inflammation in the kidney”.
For the substance “D-Arg-Val-Tyr-Ile-His-β-Pro-Trp [D-Arg-βPro-Trp-8-Ang III]”, in experiment [1], the “binding at AT1R (displacement of 125I-Sar1-Ile8-AngII), in words” value was “bind poorly”. Moreover, in experiment [2], the “Fold AT2R selectivity” value was >18,000 fold and the “binding at AT2R (displacement of 125I-Sar1-Ile8-AngII), in words” value was “high affinity”. In experiment [3], the “cardiac fibrosis by hydroxyproline analysis (LV collagen content)” value is listed as “reversed the pro-fibrotic effects of high salt in the heart”, the “cardiac oxidative stress (DHE staining)” value is “reversed the oxidative stress effects of high salt in the heart”, the “myofibroblast differentiation in heart (α-SMA)” value is given as “reversed myofibroblast differentiation” and the “expression of P-IκBα (marker for NFκB activation) in heart” value is listed as “reversed”. Further, the “cardiac fibrosis (picrosirius red)” value in experiment [3] is recorded as “reversed cardiac fibrosis”. In experiment [4], the “kidney glomerular fibrosis (picrosirius red)” value is listed as “reversed the glomerular fibrosis caused by high salt in the kidney” and the “kidney tubulointerstitial fibrosis (picrosirius red)” value was “reversed the tubulointerstitial fibrosis caused by high salt in the kidney”. In experiment [5], the “macrophage infiltration in kidney (F4/80)” value is “reversed high salt-induced macrophage infiltration in the kidney”, the “renal fibrosis by hydroxyproline analysis” value was “reversed the pro-fibrotic effects of high salt in the kidney” and the “renal inflammation (phospho-IκBα expression)” value was “reversed high salt-induced renal inflammation in the kidney”.
